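Values below derive from 48-hour exposures of cells grown in 96-well plates, with endpoints linearly interpolated between the two concentrations bracketing the appropriate inhibition level. The concentration for 50% growth inhibition is given as GI50. TGI denotes the concentration required for complete inhibition of growth.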
Columns and labels:
Experiment in all cases: growth of human tumour cells (NCI), 48 h
NCI-H460 lung = tested on: NCI-H460 lung
MDA-MB-468 breast = tested on: MDA-MB-468 breast
U251 CNS = tested on: U251 CNS
SK-MEL-28 melanoma = tested on: SK-MEL-28 melanoma
SK-OV-3 ovarian = tested on: SK-OV-3 ovarian
MALME-3M melanoma = tested on: MALME-3M melanoma
HCT-15 colon = tested on: HCT-15 colon
K-562 leukemia = tested on: K-562 leukemia
SN12C renal = tested on: SN12C renal
UACC-257 melanoma = tested on: UACC-257 melanoma
ACHN renal = tested on: ACHN renal
A549 NSCLC = tested on: A549 NSCLC
SNB-75 CNS = tested on: SNB-75 CNS
SK-MEL-2 melanoma = tested on: SK-MEL-2 melanoma
NCI-H226 lung = tested on: NCI-H226 lung
RPMI-8226 leukemia = tested on: RPMI-8226 leukemia
RXF 393 renal = tested on: RXF 393 renal
SR leukemia = tested on: SR leukemia
HL-60(TB) leukemia = tested on: HL-60(TB) leukemia
HOP-62 NSCLC = tested on: HOP-62 NSCLC
COLO 205 colon = tested on: COLO 205 colon
HCC-2998 colon = tested on: HCC-2998 colon
MCF7 breast = tested on: MCF7 breast
A498 renal = tested on: A498 renal
NCI-H23 lung = tested on: NCI-H23 lung
PC-3 prostate = tested on: PC-3 prostate
MOLT-4 leukemia = tested on: MOLT-4 leukemia
MDA-MB-231 breast = tested on: MDA-MB-231 breast
HS 578T breast = tested on: HS 578T breast
HT29 colon = tested on: HT29 colon
OVCAR-5 ovarian = tested on: OVCAR-5 ovarian
SF-295 CNS = tested on: SF-295 CNS
TK-10 renal = tested on: TK-10 renal
MDA-MB-435 = tested on: MDA-MB-435
UACC-62 melanoma = tested on: UACC-62 melanoma
KM12 colon = tested on: KM12 colon
LOX IMVI melanoma = tested on: LOX IMVI melanoma
EKVX NSCLC = tested on: EKVX NSCLC
IGROV1 ovarian = tested on: IGROV1 ovarian
SF-539 CNS = tested on: SF-539 CNS
CAKI-1 renal = tested on: CAKI-1 renal
BT-549 breast = tested on: BT-549 breast
M14 melanoma = tested on: M14 melanoma
SNB-19 CNS = tested on: SNB-19 CNS
SK-MEL-5 melanoma = tested on: SK-MEL-5 melanoma
OVCAR-3 ovarian = tested on: OVCAR-3 ovarian
UO-31 renal = tested on: UO-31 renal
786-0 renal = tested on: 786-0 renal
SF-268 CNS = tested on: SF-268 CNS

CSc1ccc(NC(=O)c2ccc3nn(/C(C#N)=C/c4ccccn4)nc3c2)cc1
GI50 (NCI-H460 lung): 1880 nM
TGI (NCI-H460 lung): 3950 nM
GI50 (MDA-MB-468 breast): 1080 nM
TGI (MDA-MB-468 breast): 2590 nM
GI50 (U251 CNS): 1590 nM
TGI (U251 CNS): 3170 nM
GI50 (SK-MEL-28 melanoma): 1670 nM
TGI (SK-MEL-28 melanoma): 3050 nM
GI50 (SK-OV-3 ovarian): 2720 nM
TGI (SK-OV-3 ovarian): 6960 nM
GI50 (MALME-3M melanoma): 1450 nM
TGI (MALME-3M melanoma): 2830 nM
GI50 (HCT-15 colon): 1150 nM
TGI (HCT-15 colon): 2510 nM
GI50 (K-562 leukemia): 681 nM
TGI (K-562 leukemia): 5050 nM
GI50 (SN12C renal): 1870 nM
TGI (SN12C renal): 3970 nM
GI50 (UACC-257 melanoma): 1640 nM
TGI (UACC-257 melanoma): 3170 nM
GI50 (ACHN renal): 1550 nM
TGI (ACHN renal): 2880 nM
GI50 (A549 NSCLC): 2340 nM
TGI (A549 NSCLC): 5990 nM
GI50 (SNB-75 CNS): 1420 nM
TGI (SNB-75 CNS): 4260 nM
GI50 (SK-MEL-2 melanoma): 1880 nM
TGI (SK-MEL-2 melanoma): 3530 nM
GI50 (NCI-H226 lung): 1980 nM
TGI (NCI-H226 lung): 4730 nM
GI50 (RPMI-8226 leukemia): 1770 nM
TGI (RPMI-8226 leukemia): 5710 nM
GI50 (RXF 393 renal): 1240 nM
TGI (RXF 393 renal): 2510 nM
GI50 (SR leukemia): 1150 nM
TGI (SR leukemia): 7600 nM
GI50 (HL-60(TB) leukemia): 626 nM
TGI (HL-60(TB) leukemia): 3750 nM
GI50 (HOP-62 NSCLC): 1950 nM
TGI (HOP-62 NSCLC): 3870 nM
GI50 (COLO 205 colon): 1720 nM
TGI (COLO 205 colon): 3300 nM
GI50 (HCC-2998 colon): 1650 nM
TGI (HCC-2998 colon): 3010 nM
GI50 (MCF7 breast): 971 nM
TGI (MCF7 breast): 2470 nM
GI50 (A498 renal): 1900 nM
TGI (A498 renal): 3710 nM
GI50 (NCI-H23 lung): 1570 nM
TGI (NCI-H23 lung): 2990 nM
GI50 (PC-3 prostate): 1880 nM
TGI (PC-3 prostate): 3970 nM
GI50 (MOLT-4 leukemia): 796 nM
TGI (MOLT-4 leukemia): 4630 nM
GI50 (MDA-MB-231 breast): 1520 nM
TGI (MDA-MB-231 breast): 2970 nM
GI50 (HS 578T breast): 2200 nM
TGI (HS 578T breast): 7680 nM
GI50 (HT29 colon): 1870 nM
TGI (HT29 colon): 4510 nM
GI50 (OVCAR-5 ovarian): 1590 nM
TGI (OVCAR-5 ovarian): 3070 nM
GI50 (SF-295 CNS): 1730 nM
TGI (SF-295 CNS): 3290 nM
GI50 (TK-10 renal): 1750 nM
TGI (TK-10 renal): 3210 nM
GI50 (MDA-MB-435): 1540 nM
TGI (MDA-MB-435): 3190 nM
GI50 (UACC-62 melanoma): 1620 nM
TGI (UACC-62 melanoma): 3060 nM
GI50 (KM12 colon): 2070 nM
TGI (KM12 colon): 4440 nM
GI50 (LOX IMVI melanoma): 1230 nM
TGI (LOX IMVI melanoma): 2520 nM
GI50 (EKVX NSCLC): 1540 nM
TGI (EKVX NSCLC): 3010 nM
GI50 (IGROV1 ovarian): 1740 nM
TGI (IGROV1 ovarian): 3360 nM
GI50 (SF-539 CNS): 1670 nM
TGI (SF-539 CNS): 3040 nM
GI50 (CAKI-1 renal): 1070 nM
TGI (CAKI-1 renal): 2350 nM
GI50 (BT-549 breast): 1670 nM
TGI (BT-549 breast): 3110 nM
GI50 (M14 melanoma): 1780 nM
TGI (M14 melanoma): 3300 nM
GI50 (SNB-19 CNS): 1850 nM
TGI (SNB-19 CNS): 4260 nM
GI50 (SK-MEL-5 melanoma): 1680 nM
TGI (SK-MEL-5 melanoma): 3110 nM
GI50 (OVCAR-3 ovarian): 991 nM
TGI (OVCAR-3 ovarian): 2640 nM
GI50 (UO-31 renal): 1200 nM
TGI (UO-31 renal): 2430 nM
GI50 (786-0 renal): 1700 nM
TGI (786-0 renal): 3130 nM
GI50 (SF-268 CNS): 2360 nM
TGI (SF-268 CNS): 6210 nM

Source: PubChem BioAssay (NCI)
